{"source": "patent US10385019B2", "about": "“Inhibitors of EGFR and methods of use thereof” (Dana-Farber Cancer Institute, Inc., priority 2015, dated 2019)", "data": [{"biological_target": "EGFR T790M/L858R Ba/F3 cell line (Homo sapiens, UniProt P00533, T790M/L858R, cells depend on it)", "sequence (P00533 whole entry T790M/L858R)": "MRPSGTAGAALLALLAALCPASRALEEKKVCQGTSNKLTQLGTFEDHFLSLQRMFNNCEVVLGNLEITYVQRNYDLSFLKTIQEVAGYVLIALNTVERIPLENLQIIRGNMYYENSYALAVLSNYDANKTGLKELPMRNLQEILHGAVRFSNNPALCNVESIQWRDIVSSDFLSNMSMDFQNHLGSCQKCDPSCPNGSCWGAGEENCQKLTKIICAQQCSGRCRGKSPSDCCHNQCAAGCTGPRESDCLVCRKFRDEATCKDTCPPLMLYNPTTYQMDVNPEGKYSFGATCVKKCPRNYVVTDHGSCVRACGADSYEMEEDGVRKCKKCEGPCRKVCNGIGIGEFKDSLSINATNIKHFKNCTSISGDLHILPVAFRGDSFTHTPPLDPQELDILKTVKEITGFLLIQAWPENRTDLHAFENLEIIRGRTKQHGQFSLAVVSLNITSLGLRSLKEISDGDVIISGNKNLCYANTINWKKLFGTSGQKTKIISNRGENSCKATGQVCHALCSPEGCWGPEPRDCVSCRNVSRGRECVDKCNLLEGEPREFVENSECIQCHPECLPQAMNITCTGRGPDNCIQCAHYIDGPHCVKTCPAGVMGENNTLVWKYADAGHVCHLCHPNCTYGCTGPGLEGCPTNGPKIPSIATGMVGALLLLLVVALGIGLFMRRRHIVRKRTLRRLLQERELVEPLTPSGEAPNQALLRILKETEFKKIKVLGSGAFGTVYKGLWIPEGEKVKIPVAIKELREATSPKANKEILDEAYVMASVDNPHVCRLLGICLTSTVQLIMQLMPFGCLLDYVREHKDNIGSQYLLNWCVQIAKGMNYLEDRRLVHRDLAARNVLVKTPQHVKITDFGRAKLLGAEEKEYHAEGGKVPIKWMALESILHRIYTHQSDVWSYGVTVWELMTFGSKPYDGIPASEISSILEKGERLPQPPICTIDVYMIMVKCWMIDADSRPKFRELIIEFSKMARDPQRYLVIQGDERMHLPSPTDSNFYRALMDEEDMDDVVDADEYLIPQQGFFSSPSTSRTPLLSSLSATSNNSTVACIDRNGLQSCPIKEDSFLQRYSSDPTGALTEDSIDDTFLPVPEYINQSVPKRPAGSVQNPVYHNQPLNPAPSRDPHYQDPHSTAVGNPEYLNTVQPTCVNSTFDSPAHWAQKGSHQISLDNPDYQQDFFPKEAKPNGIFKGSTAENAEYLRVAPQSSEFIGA", "test": "Ba/F3 cell proliferation model", "format": "cell-based, murine", "details": "combined with cetuximab (% cetuximab, 1.0 μM drug concentration with 1.0 μg/mL cetuximab)", "excerpt": "The selectivity between wild-type EGFR and EGFR containing one or more mutations as described herein can also be measured using cellular proliferation assays where cell proliferation is dependent on kinase activity. For example, murine Ba/F3 cells transfected with a suitable version of wild-type EGFR (such as VIII; containing a WT EGFR kinase domain), or Ba/F3 cells transfected with L858R/T790M, Del/T790M/L718Q, L858R/T790M/L718Q, L858R/T790M/C797S, Del/T790M/C797S, L858R/T790M/I941R, or Exon 19 deletion/T790M can be used.\nCell lines are plated in media. The compounds of the present disclosure are then serially diluted and transferred to the cells. Cell viability is measured via a luminescent readout. Data is analyzed by non-linear regression curve-fitting. […]\nThe EGFR mutant L858R, Del E746_A750, L858R/T790M, DelE746_A750/T790M, L858R/T790M/C797S and Del/T790M/C797S Ba/F3 cells have been previously described (Zhou, W., Ercan, D., Chen, L., Yun, C. H., Li, D., Capelletti, M., Cortot, A. B., Chirieac, L., Iacob, R. E., Padera, R., et al. “Novel mutant-selective EGFR kinase inhibitors against EGFR T790M,” Nature 462, (2009), 1070-1074). All cell lines were maintained in RPMI 1640 (Cellgro; Mediatech Inc., Herndon, Calif.) supplemented with 10% FBS 100 units/mL penicillin, 100 units/mL streptomycin, and 2 mM glutamine. L858R cells were maintained in ACL-4 media (Invitrogen, Carlsbad, Calif.) supplemented with 5% FBS, 100 units/mL penicillin, 100 units/mL streptomycin, and 2 mM glutamine. The EGFR I941R mutation was introduced via site directed mutagenesis using the Quick Change Site-Directed Mutagenesis kit (Stratagene; La Jolla, Calif.) according to the manufacturer's instructions. All constructs were confirmed by DNA sequencing. The constructs were shuttled into the retroviral vector JP 1540 using the BD Creator™ System (BD Biosciences). Ba/F3 cells were infected with retrovirus and according to standard protocols, as described previously (Zhou et al, Nature 2009). Stable clones were obtained by selection in puromycin (2 μg/ml).\nGrowth and inhibition of growth was assessed by MTS assay and was performed according to previously established methods (Zhou et al., Nature 2009). The MTS assay is a colorimetric method for determining the number of viable cells that is based on the bioreduction of MTS by cells to a formazan product that is soluble in cell culture medium and can be detected spectrophotometrically. Ba/F3 cells of different EGFR genotypes were exposed to treatment for 72 hours and the number of cells used per experiment determined empirically and has been previously established (Zhou et al., Nature 2009). All experimental points were set up in six wells and all experiments were repeated at least three times. […] The curves were fitted using a non-linear regression model with a sigmoidal dose response.\nInhibition data of an EGFR T790M/L858R Ba/F3 cell line.", "values": [{"smiles": "C[C@@H](NC(=O)[C@H](c1ccccc1)N1Cc2ccccc2C1=O)c1ccccc1", "note": "[Compound I-1, (S)-2-(1-oxoisoindolin-2-yl)-2-phenyl-N-((R)-1-phenylethyl)acetamide]", "Activity (% inhibition)": "A (a % inhibition of about 75%)"}, {"smiles": "C[C@H](NC(=O)[C@H](c1ccccc1)N1Cc2ccccc2C1=O)c1ccccc1", "note": "[Compound I-2, (S)-2-(1-oxoisoindolin-2-yl)-2-phenyl-N-((S)-1-phenylethyl)acetamide]", "Activity (% inhibition)": "A (a % inhibition of about 75%)"}, {"smiles": "CCOC(=O)c1csc(NC(=O)[C@@H](c2ccccc2)N2Cc3ccccc3C2=O)n1", "note": "[Compound I-4, ethyl (R)-2-(2-(1-oxoisoindolin-2-yl)-2-phenylacetamido) thiazole-4-carboxylate]", "Activity (% inhibition)": "A (a % inhibition of about 75%)"}, {"smiles": "Cc1csc(NC(=O)[C@@H](c2ccccc2)N2Cc3ccccc3C2=O)n1", "note": "[Compound I-5, (R)-N-(4-methylthiazol-2-yl)-2-(1-oxoisoindolin-2-yl)-2-phenylacetamide]", "Activity (% inhibition)": "A (a % inhibition of about 75%)"}, {"smiles": "O=C(Nc1nc(C(F)(F)F)cs1)[C@@H](c1ccccc1)N1Cc2ccccc2C1=O", "note": "[Compound I-6, (R)-2-(1-oxoisoindolin-2-yl)-2-phenyl-N-(4-(trifluoromethyl)thiazol-2-yl)acetamide]", "Activity (% inhibition)": "A (a % inhibition of about 75%)"}, {"smiles": "O=C(Nc1cccnc1)[C@@H](c1ccccc1)N1Cc2ccccc2C1=O", "note": "[Compound I-7, (R)-2-(1-oxoisoindolin-2-yl)-2-phenyl-N-(pyridin-3-yl) acetamide]", "Activity (% inhibition)": "A (a % inhibition of about 75%)"}, {"smiles": "O=C(Nc1ccncc1)[C@@H](c1ccccc1)N1Cc2ccccc2C1=O", "note": "[Compound I-8, (R)-2-(1-oxoisoindolin-2-yl)-2-phenyl-N-(pyridin-4-yl) acetamide]", "Activity (% inhibition)": "A (a % inhibition of about 75%)"}, {"smiles": "CNC(=O)c1csc(NC(=O)[C@@H](c2ccccc2)N2Cc3ccccc3C2=O)n1", "note": "[Compound I-9, (R)-N-methyl-2-(2-(1-oxoisoindolin-2-yl)-2-phenylacetamido) thiazole-4-carboxamide]", "Activity (% inhibition)": "A (a % inhibition of about 75%)"}, {"smiles": "O=C(NCCN1CCOCC1)c1csc(NC(=O)[C@@H](c2ccccc2)N2Cc3ccccc3C2=O)n1", "note": "[Compound I-10, (R)-N-(2-morpholinoethyl)-2-(2-(1-oxoisoindolin-2-yl)-2-phenylacetamido)thiazole-4-carboxamide]", "Activity (% inhibition)": "A (a % inhibition of about 75%)"}, {"smiles": "CN(C)CCCNC(=O)c1csc(NC(=O)[C@@H](c2ccccc2)N2Cc3ccccc3C2=O)n1", "note": "[Compound I-11, (R)-N-(3-(dimethylamino)propyl)-2-(2-(1-oxoisoindolin-2-yl)-2-phenylacetamido)thiazole-4-carboxamide]", "Activity (% inhibition)": "A (a % inhibition of about 75%)"}, {"smiles": "O=C(Nc1nccs1)[C@H](c1cccc([N+](=O)[O-])c1)N1Cc2ccccc2C1=O", "note": "[Compound I-12, (S)-2-(3-nitrophenyl)-2-(1-oxoisoindolin-2-yl)-N-(thiazol-2-yl)acetamide]", "Activity (% inhibition)": "A (a % inhibition of about 75%)"}, {"smiles": "Nc1cccc([C@@H](C(=O)Nc2nccs2)N2Cc3ccccc3C2=O)c1", "note": "[Compound I-13, (S)-2-(3-aminophenyl)-2-(1-oxoisoindolin-2-yl)-N-(thiazol-2-yl)acetamide]", "Activity (% inhibition)": "A (a % inhibition of about 75%)"}, {"smiles": "O=C(NCCCN1CCOCC1)c1csc(NC(=O)[C@@H](c2ccccc2)N2Cc3ccccc3C2=O)n1", "note": "[Compound I-14, (R)-N-(3-morpholinopropyl)-2-(2-(1-oxoisoindolin-2-yl)-2-phenylacetamido)thiazole-4-carboxamide]", "Activity (% inhibition)": "A (a % inhibition of about 75%)"}, {"smiles": "CN(C)CCCCNC(=O)c1csc(NC(=O)[C@@H](c2ccccc2)N2Cc3ccccc3C2=O)n1", "note": "[Compound I-15, (R)-N-(4-(dimethylamino)butyl)-2-(2-(1-oxoisoindolin-2-yl)-2-phenylacetamido)thiazole-4-carboxamide]", "Activity (% inhibition)": "A (a % inhibition of about 75%)"}, {"smiles": "CN(C)CCNC(=O)c1csc(NC(=O)[C@@H](c2ccccc2)N2Cc3ccccc3C2=O)n1", "note": "[Compound I-16, (R)-N-(2-(dimethylamino)ethyl)-2-(2-(1-oxoisoindolin-2-yl)-2-phenylacetamido)thiazole-4-carboxamide]", "Activity (% inhibition)": "A (a % inhibition of about 75%)"}, {"smiles": "NC(=O)c1csc(NC(=O)[C@@H](c2ccccc2)N2Cc3ccccc3C2=O)n1", "note": "[Compound I-17, (R)-2-(2-(1-oxoisoindolin-2-yl)-2-phenylacetamido)thiazole-4-carboxamide]", "Activity (% inhibition)": "A (a % inhibition of about 75%)"}, {"smiles": "O=C(Nc1nccs1)[C@@H](c1cccc([N+](=O)[O-])c1)N1Cc2ccccc2C1=O", "note": "[Compound I-18, (R)-2-(3-nitrophenyl)-2-(1-oxoisoindolin-2-yl)-N-(thiazol-2-yl)acetamide]", "Activity (% inhibition)": "A (a % inhibition of about 75%)"}, {"smiles": "O=C(Nc1ncco1)[C@@H](c1ccccc1)N1Cc2ccccc2C1=O", "note": "[Compound I-19, (R)-N-(oxazol-2-yl)-2-(1-oxoisoindolin-2-yl)-2-phenylacetamide]", "Activity (% inhibition)": "A (a % inhibition of about 75%)"}, {"smiles": "O=C(Nc1ncco1)[C@H](c1ccccc1)N1Cc2ccccc2C1=O", "note": "[Compound I-20, (S)-N-(oxazol-2-yl)-2-(1-oxoisoindolin-2-yl)-2-phenylacetamide]", "Activity (% inhibition)": "A (a % inhibition of about 75%)"}, {"smiles": "O=C(Nc1nccs1)[C@H](c1ccccc1)N1Cc2ccccc2C1=O", "note": "[Compound I-21, (S)-2-(1-oxoisoindolin-2-yl)-2-phenyl-N-(thiazol-2-yl) acetamide]", "Activity (% inhibition)": "B (a % inhibition of between about 50% to about 75%)"}, {"smiles": "O=C(Nc1nc(C(=O)N2CCOCC2)cs1)[C@@H](c1ccccc1)N1Cc2ccccc2C1=O", "note": "[Compound I-22, (R)-N-(4-(morpholine-4-carbonyl)thiazol-2-yl)-2-(1-oxoisoindolin-2-yl)-2-phenylacetamide]", "Activity (% inhibition)": "A (a % inhibition of about 75%)"}, {"smiles": "CN(C)C1CCN(C(=O)c2csc(NC(=O)[C@@H](c3ccccc3)N3Cc4ccccc4C3=O)n2)CC1", "note": "[Compound I-23, (R)-N-(4-(4-(dimethylamino)piperidine-1-carbonyl)thiazol-2-yl)-2-(1-oxoisoindolin-2-yl)-2-phenylacetamide]", "Activity (% inhibition)": "A (a % inhibition of about 75%)"}, {"smiles": "O=C(Nc1nc(C(=O)N2CCC(N3CCOCC3)CC2)cs1)[C@@H](c1ccccc1)N1Cc2ccccc2C1=O", "note": "[Compound I-24, (R)-N-(4-(4-morpholinopiperidine-1-carbonyl)thiazol-2-yl)-2-(1-oxoisoindolin-2-yl)-2-phenylacetamide]", "Activity (% inhibition)": "A (a % inhibition of about 75%)"}, {"smiles": "CN1CCN(C(=O)c2csc(NC(=O)[C@@H](c3ccccc3)N3Cc4ccccc4C3=O)n2)CC1", "note": "[Compound I-25, (R)-N-(4-(4-methylpiperazine-1-carbonyl)thiazol-2-yl)-2-(1-oxoisoindolin-2-yl)-2-phenylacetamide]", "Activity (% inhibition)": "A (a % inhibition of about 75%)"}, {"smiles": "O=C(Nc1cc(C2CC2)n[nH]1)[C@@H](c1ccccc1)N1Cc2ccccc2C1=O", "note": "[Compound I-26, (R)-N-(3-cyclopropyl-1H-pyrazol-5-yl)-2-(1-oxoisoindolin-2-yl)-2-phenylacetamide]", "Activity (% inhibition)": "A (a % inhibition of about 75%)"}]}]}
